system: RSV A2 virus; test: RSV CPE assay; conditions: human respiratory syncytial virus, HEp-2, 120 h, read-out: RSV A2 (Hep-2 cell) EC50

Compound	EC50
CC(C)(C)C(=O)O[C@H]1[C@@H](OC(=O)C(C)(C)C)[C@](C#N)(c2ccc3c(N)ncnn23)O[C@@H]1CO[P@@](=O)(N[C@@H](CC(=O)OC1CCC1)C(=O)OC1CCC1)Oc1ccccc1 [Compound 57b, (2R,3R,4R,5R)-2-(4-aminopyrrolo[2,1-f][1,2,4]triazin-7-yl)-2-cyano-5-((((S)-(((S)-1,4-dicyclobutoxy-1,4-dioxobutan-2-yl)amino)(phenoxy)phosphoryl)oxy)methyl)tetrahydrofuran-3,4-diyl bis(2,2-dimethylpropionate)]	200 to 500 nM
CC(C)(C)C(=O)O[C@H]1[C@@H](OC(=O)C(C)(C)C)[C@](C#N)(c2ccc3c(N)ncnn23)O[C@@H]1CO[P@](=O)(N[C@H](C=O)CC(=O)OC1(C2CCCC2)CCCC1)Oc1ccccc1 [Compound 61a, (2R,3R,4R,5R)-2-(4-aminopyrrolo[2,1-f][1,2,4]triazin-7-yl)-2-cyano-5-((((R)-(((S)-1,4-bicyclopentyloxy-1,4-dioxobutan-2-yl)amino)(phenoxy)phosphoryl)oxy)methyl)tetrahydrofuran-3,4-diyl bis(2,2-dimethylpropionate)]	> 1000 nM
CC(C)(C)C(=O)O[C@H]1[C@@H](OC(=O)C(C)(C)C)[C@](C#N)(c2ccc3c(N)ncnn23)O[C@@H]1CO[P@@](=O)(N[C@H](C=O)CC(=O)OC1(C2CCCC2)CCCC1)Oc1ccccc1 [Compound 61b, (2R,3R,4R,5R)-2-(4-aminopyrrolo[2,1-f][1,2,4]triazin-7-yl)-2-cyano-5-((((S)-(((S)-1,4-bicyclopentyloxy-1,4-dioxobutan-2-yl)amino)(phenoxy)phosphoryl)oxy)methyl)tetrahydrofuran-3,4-diyl bis(2,2-dimethylpropionate)]	500 to 1000 nM
CCC(CC)COC(=O)C[C@H](N[P@@](=O)(OC[C@H]1O[C@@](C#N)(c2ccc3c(N)ncnn23)[C@H](OC(=O)C(C)C)[C@@H]1OC(=O)C(C)C)Oc1ccccc1)C(=O)OCC(CC)CC [Compound 62a, (2R,3R,4R,5R)-2-(4-aminopyrrolo[2,1-f][1,2,4]triazin-7-yl)-2-cyano-5-((((R)-(((S)-1,4-bis(2-ethylbutoxy)-1,4-dioxobutan-2-yl)amino)(phenoxy)phosphoryl)oxy)methyl)tetrahydrofuran-3,4-diyl bis(2-methylpropionate)]	200 to 500 nM
CCC(CC)COC(=O)C[C@H](N[P@](=O)(OC[C@H]1O[C@@](C#N)(c2ccc3c(N)ncnn23)[C@H](OC(=O)C(C)C)[C@@H]1OC(=O)C(C)C)Oc1ccccc1)C(=O)OCC(CC)CC [Compound 62b, (2R,3R,4R,5R)-2-(4-aminopyrrolo[2,1-f][1,2,4]triazin-7-yl)-2-cyano-5-((((S)-(((S)-1,4-bis(2-ethylbutoxy)-1,4-dioxobutan-2-yl)amino)(phenoxy)phosphoryl)oxy)methyl)tetrahydrofuran-3,4-diyl bis(2-methylpropionate)]	< 100 nM
CC(C)C(=O)O[C@H]1[C@@H](OC(=O)C(C)C)[C@](C#N)(c2ccc3c(N)ncnn23)O[C@@H]1CO[P@@](=O)(N[C@@H](Cc1ccccc1)C(=O)OC1CCC1)Oc1ccccc1 [Compound 63b, (2R,3R,4R,5R)-2-(4-aminopyrrolo[2,1-f][1,2,4]triazin-7-yl)-2-cyano-5-((((S)-(((S)-1-cyclobutoxy-1-oxo-3-phenylpropan-2-yl)amino)(phenoxy)phosphoryl)oxy)methyl)tetrahydrofuran-3,4-diyl bis(2-methylpropionate)]	< 100 nM
COC(C)(C)COC(=O)[C@H](Cc1ccccc1)N[P@@](=O)(OC[C@H]1O[C@@](C#N)(c2ccc3c(N)ncnn23)[C@H](OC(=O)C(C)C)[C@@H]1OC(=O)C(C)C)Oc1ccccc1 [Compound 64a, (2R,3R,4R,5R)-2-(4-aminopyrrolo[2,1-f][1,2,4]triazin-7-yl)-2-cyano-5-((((R)-(((S)-1-(2-methoxy-2-methylpropoxy)-1-oxo-3-phenylpropan-2-yl)amino)(phenoxy)phosphoryl)oxy)methyl)tetrahydrofuran-3,4-diyl bis(2-methylpropionate)]	100 to 200 nM
COC(C)(C)COC(=O)[C@H](Cc1ccccc1)N[P@](=O)(OC[C@H]1O[C@@](C#N)(c2ccc3c(N)ncnn23)[C@H](OC(=O)C(C)C)[C@@H]1OC(=O)C(C)C)Oc1ccccc1 [Compound 64b, (2R,3R,4R,5R)-2-(4-aminopyrrolo[2,1-f][1,2,4]triazin-7-yl)-2-cyano-5-((((S)-(((S)-1-(2-methoxy-2-methylpropoxy)-1-oxo-3-phenylpropan-2-yl)amino)(phenoxy)phosphoryl)oxy)methyl)tetrahydrofuran-3,4-diyl bis(2-methylpropionate)]	< 100 nM

same assay, conditions: read-out: RSV A2 (Hep-2 cell) EC50; HEp-2 cells, RSV A2 virus, 5 days, CCK8

Compound	EC50
CC(C)C(=O)O[C@H]1[C@@H](OC(=O)C(C)C)[C@](C#N)(c2ccc3c(N)ncnn23)O[C@@H]1CO[P@](=O)(N[C@@H](Cc1ccccc1)C(=O)OC1CCC1)Oc1ccccc1 [Compound 63a]	200 to 500 nM
(2R,3R,4R,5R)-2-(4-aminopyrrolo[2,1-f][1,2,4]triazin-7-yl)-2-cyano-5-((((R)-(((S)-1,4-bicyclopentyloxy-1,4-dioxobutan-2-yl)amino)(phenoxy)phosphoryl)oxy)methyl)tetrahydrofuran-3,4-diyl diacetate [Compound 58a]	200 to 500 nM
(2R,3R,4R,5R)-2-(4-aminopyrrolo[2,1-f][1,2,4]triazin-7-yl)-2-cyano-5-((((R)-(((S)-1,4-bicyclopentyloxy-1,4-dioxobutan-2-yl)amino)(phenoxy)phosphoryl)oxy)methyl)tetrahydrofuran-3,4-diyl dipropionate [Compound 59a]	200 to 500 nM
(2R,3R,4R,5R)-2-(4-aminopyrrolo[2,1-f][1,2,4]triazin-7-yl)-2-cyano-5-((((R)-(((S)-1,4-dicyclobutoxy-1,4-dioxobutan-2-yl)amino)(phenoxy)phosphoryl)oxy)methyl)tetrahydrofuran-3,4-diyl diacetate [Compound 55a]	100 to 200 nM
(2R,3R,4R,5R)-2-(4-aminopyrrolo[2,1-f][1,2,4]triazin-7-yl)-2-cyano-5-((((R)-(((S)-1,4-dicyclobutoxy-1,4-dioxobutan-2-yl)amino)(phenoxy)phosphoryl)oxy)methyl)tetrahydrofuran-3,4-diyl dipropionate [Compound 56a]	200 to 500 nM
(2R,3R,4R,5R)-2-(4-aminopyrrolo[2,1-f][1,2,4]triazin-7-yl)-2-cyano-5-((((R)-(((S)-1-(2-ethylbutoxy)-1-oxopropan-2-yl)amino)(((isopropoxycarbonyl)oxy)methoxy)phosphoryl)oxy)methyl)tetrahydrofuran-3,4-diyl diacetate [Compound 5a]	200 to 500 nM
(2R,3R,4R,5R)-2-(4-aminopyrrolo[2,1-f][1,2,4]triazin-7-yl)-2-cyano-5-((((R)-(((S)-1-isopropoxy-1-oxopropan-2-yl)amino)(((isopropoxycarbonyl)oxy)methoxy)phosphoryl)oxy)methyl)tetrahydrofuran-3,4-diyl diacetate [Compound 1a]	100 to 200 nM
(2R,3R,4R,5R)-2-(4-aminopyrrolo[2,1-f][1,2,4]triazin-7-yl)-2-cyano-5-((((S)-(((S)-1,4-bicyclopentyloxy-1,4-dioxobutan-2-yl)amino)(phenoxy)phosphoryl)oxy)methyl)tetrahydrofuran-3,4-diyl diacetate [Compound 58b]	< 100 nM
